This is an account of results in patent US8168656B2, “Indoleacetic acid and indenacetic acid derivatives as therapeutic agents with reduced gastrointestinal toxicity” (Vanderbilt University, priority 2009, dated 2012).

In assay [1] the target is T1, mCOX-2^V349L (Mus musculus, UniProt Q05769, V335L).
T1 construct: made in house; host or cells: Sf9 insect cells (baculovirus, pVL1393)
T1 sequence (Q05769 18-604 V335L): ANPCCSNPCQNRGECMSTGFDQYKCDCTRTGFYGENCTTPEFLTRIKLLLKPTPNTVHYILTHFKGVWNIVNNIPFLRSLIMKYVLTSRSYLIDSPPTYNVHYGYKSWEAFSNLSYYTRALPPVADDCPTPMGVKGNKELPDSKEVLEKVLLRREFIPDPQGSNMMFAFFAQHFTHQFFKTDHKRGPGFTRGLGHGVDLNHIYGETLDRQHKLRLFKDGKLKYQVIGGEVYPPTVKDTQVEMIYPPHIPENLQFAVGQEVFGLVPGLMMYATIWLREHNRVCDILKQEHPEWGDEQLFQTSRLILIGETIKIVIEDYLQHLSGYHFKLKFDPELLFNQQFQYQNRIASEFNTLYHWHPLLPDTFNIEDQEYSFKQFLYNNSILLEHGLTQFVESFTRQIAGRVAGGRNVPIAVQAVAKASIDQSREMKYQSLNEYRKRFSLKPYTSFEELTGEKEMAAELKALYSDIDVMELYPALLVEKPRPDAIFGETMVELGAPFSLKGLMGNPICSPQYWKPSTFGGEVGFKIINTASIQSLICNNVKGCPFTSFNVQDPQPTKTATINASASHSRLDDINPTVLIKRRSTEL
Put plainly: Kinetics of time-dependent COX inhibition. In kind it is biochemical, murine. The protocol: (§1) Assays were terminated and analyzed for substrate consumption by thin layer chromatography. […] Time-dependent COX inhibition reactions were pre-incubated at 37° C. for varying lengths of time (0-30 minutes) with various concentrations of inhibitor. All reactions were performed with [1-^14C]-AA for 30 seconds at 37° C.; reactions were terminated and analyzed as described above.
(§2) To ensure that pseudo-first-order conditions were maintained, the enzymatic oxygenation reactions were terminated after 30 seconds to prevent extensive consumption of substrate. The decline of substrate conversion at different INDO concentrations was plotted against the pre-incubation times and fit to a single exponential decay with a plateau to determine kobs (FIG. 2).
(§3) The rate constant k2 represents the limiting forward rate constant for functionally irreversible inhibition, and KI corresponds to the inhibitor concentration that yields a rate equal to half of the limiting rate.

In assay [2] the target is T2, wild type mCOX-2 (Mus musculus, UniProt Q05769).
T2 construct: made in house; host or cells: Sf9 insect cells (baculovirus, pVL1393)
T2 sequence (Q05769 18-604): T1 sequence (Q05769 18-604 V335L) with L318V
Put plainly: Kinetics of time-dependent COX inhibition. It counts as biochemical, murine. The protocol:
as §1, §2, §3

Assay [3] addresses T2, wild type mCOX-2. Put plainly: Steady-state quenching of COX intrinsic fluorescence (apo-protein). It counts as binding, murine. The method, then: Steady-state measurements were performed at 37° C. in a 3.5 ml fluorescence cuvette with continuous stirring. […] Data were collected over 240 or 360 seconds with 2-second integration times. The reversibility of quenching was analyzed in the same manner, with subsequent addition of 50 μM AA as competitor. The ligands were dissolved in DMSO before further dilution into buffer. The organic component in the buffer was below 0.4%.
This assay provided a method to directly monitor the binding of INDO and DM-INDO to COXs. Various concentrations of INDO and DM-INDO were added to apo-proteins and the rate of fluorescence decrease was monitored over time. After the mixture reached equilibrium, 50 μM of AA was added as competitor to monitor the reversibility of binding. The kinetic data for quenching were analyzed in the same manner as those for inhibition. For clarity, the equilibrium constant for the first step of fluorescence quenching is referred to as Kd, and k2 and k−2 from the second step of quenching are represented by k′2 and k′−2, respectively.

Residue numbers refer to the chain shown, from its start.

A word on the Kd: it is a measure of binding affinity in units of concentration. A lower Kd goes with a tighter complex. In the case of `COc1ccc2c(c1)c(CC(=O)O)cn2C(=O)c1ccc(Cl)cc1` [DM-INDO, 2-Des-methylindomethacin], the “remaining activity approached (plateau) in time-dependent inhibition curves” value in assay [1] (V349L) is listed as “about 30%”. The “higher concentrations required for V349L to achieve similar inhibition as wild type mCOX-2” value in assay [1] (V349L versus wild type mCOX-2) was about 10 fold. Besides, the “k−2 (y-intercept of linear regression analysis)” value in assay [1] (V349L, graph did not plateau, linear regression) stood at 0.0025 ± 0.0003 s⁻¹. Moreover, in assay [2], the “off-rate constant slower than the on-rate” value is recorded as 14 fold and the “remaining activity approached (plateau) in time-dependent inhibition curves” value is listed as “about 30%”. Also, the “on-rate constant (k2) faster than for INDO” value in assay [2] (DM-INDO versus INDO) was 14 fold. In assay [2] (time-dependent inhibition), the Ki turned out to be 26 ± 7 µM, the k2 worked out at 0.80 ± 0.03 s⁻¹ and the “k−2” value came to 0.05 ± 0.02 s⁻¹. The “k′−2^b” value in assay [3] (fluorescence increase from competition with 50 μM AA) was 0.007 ± 0.001 s⁻¹. In addition, in assay [3] (fluorescence quenching), binding was characterised by a dissociation constant (Kd) of 16 ± 9 µM and the “k′2” value was 0.16 ± 0.04 s⁻¹. For the same compound, the “k′−2” value in assay [3] (fluorescence quenching (decay)) was found to be 0.006 ± 0.002 s⁻¹.
